The experiment has as its target C-Raf FL (full length CRAF with Y340E and Y341E activating mutations, co-expressed with h14-3-3 zeta) (Homo sapiens (Human), UniProt P04049, Y340E/Y341E). Briefly: In vitro Raf activity determination, AlphaScreen p-MEK readout, c-Raf (C-Raf FL). Format: biochemical. To be noted: c-Raf approximately 4 nM, ATP 1 μM, pre-incubation 60 minutes, reaction 1 hour. The source says:
Sf9 cells co-expressing both proteins were lysed and subjected to immobilized nickel chromatography and eluted with Imidazole. A second column (StrepII binding column) was used and eluted with desthiobiotin. Protein Tags were removed using Prescission enzyme and the protein was further purified using a flowthrough step to remove tags.
C-Raf TR refers to a truncated C-Raf protein, a Δ1-324 deletion mutant. C-Raf FL refers to the full-length C-Raf protein.
Full length MEK1 with an inactivating K97R ATP binding site mutation is utilized as a RAF substrate. The MEK1 cDNA was subcloned with an N-terminal (his)6 tag into a vector for E. Coli expression. The MEK1 substrate was purified from E. Coli lysate by nickel affinity chromatography followed by anion exchange. The final MEK1 preparation was biotinylated (Pierce EZ-Link Sulfo-NHS-LC-Biotin) and concentrated.
Assay Materials: Assay buffer is 50 mM Tris, pH 7.5, 15 mM MgCl2, 0.01% Bovine Serum Albumin (BSA) and 1 mM dithiothreitol (DTT); Stop buffer is 60 mM ethylenediaminetetraacetic acid (EDTA) and 0.01% Tween® 20; b-Raf (V600E), active; biotinylated Mek, kinase dead; Alpha Screen detection kit (available from PerkinElmer™, #6760617R); Anti phospho-MEK1/2 (available from Cell Signaling Technology, Inc. #9121); 384 well low volume assay plates (White Greiner® plates).
Assay conditions: b-Raf (V600E) approximately 4 pM; c-Raf approximately 4 nM; biotinylated Mek, kinase dead approximately 10 nM; ATP 10 μM for BRAF (V600E) and 1 μM for CRAF; Pre-incubation time with compounds 60 minutes at room temperature; Reaction time 1 or 3 hours at room temperature.
Assay protocol: Raf and biotinylated Mek (kinase dead) were combined at 2× final concentrations in assay buffer (50 mM Tris, pH 7.5, 15 mM MgCl2, 0.01% BSA and 1 mM DTT) and dispensed […] per well in assay plates (Greiner white 384 well assay plates #781207) containing […] of 40× of a Raf kinase inhibitor test compound diluted in 100% DMSO. The plate was incubated for 60 minutes at room temperature. The Raf kinase activity reaction was started by the addition of […] per well of 2×ATP diluted in assay buffer. After 3 hours (b-Raf(V600E)) or 1 hour (c-Raf). The reactions were stopped and the phosphorylated product was measured using a rabbit anti-p-MEK (Cell Signaling, #9121) antibody and the Alpha Screen IgG (ProteinA) detection Kit (PerkinElmer #6760617R), by the addition of […] to the well of a mixture of the antibody (1:2000 dilution) and detection beads (1:2000 dilution of both beads) in Stop/bead buffer (25 mM EDTA, 50 mM Tris, pH 7.5, 0.01% Tween20). The additions were carried out under dark conditions to protect the detection beads from light. A lid was placed on top of the plate and incubated for 1 hour at room temperature, after which the luminescence was read on a PerkinElmer Envision instrument.
On the technique in general: Bead proximity is the source of the signal in Alpha formats.

C-Raf FL (full length CRAF with Y340E and Y341E activating mutations, co-expressed with h14-3-3 zeta), sequence (P04049 whole entry Y340E/Y341E): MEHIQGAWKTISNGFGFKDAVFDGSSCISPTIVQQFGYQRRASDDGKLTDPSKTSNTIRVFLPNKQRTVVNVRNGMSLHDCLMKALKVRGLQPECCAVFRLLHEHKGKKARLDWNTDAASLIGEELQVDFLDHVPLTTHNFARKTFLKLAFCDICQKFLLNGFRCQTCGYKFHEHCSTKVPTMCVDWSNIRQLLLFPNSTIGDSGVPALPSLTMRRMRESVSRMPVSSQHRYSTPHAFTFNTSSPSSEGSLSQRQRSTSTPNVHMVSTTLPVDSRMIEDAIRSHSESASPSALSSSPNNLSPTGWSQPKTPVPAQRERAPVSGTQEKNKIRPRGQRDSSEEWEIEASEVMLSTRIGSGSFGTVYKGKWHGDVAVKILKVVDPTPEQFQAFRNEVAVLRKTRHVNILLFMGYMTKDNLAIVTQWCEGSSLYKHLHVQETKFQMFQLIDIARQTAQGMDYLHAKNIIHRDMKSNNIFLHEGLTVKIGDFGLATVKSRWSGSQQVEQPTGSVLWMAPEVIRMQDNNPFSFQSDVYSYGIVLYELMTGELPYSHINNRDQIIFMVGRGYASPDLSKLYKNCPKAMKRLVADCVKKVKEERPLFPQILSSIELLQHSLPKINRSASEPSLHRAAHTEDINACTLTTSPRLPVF
C-Raf FL (full length CRAF with Y340E and Y341E activating mutations, co-expressed with h14-3-3 zeta), sequence (P63104 whole entry partner): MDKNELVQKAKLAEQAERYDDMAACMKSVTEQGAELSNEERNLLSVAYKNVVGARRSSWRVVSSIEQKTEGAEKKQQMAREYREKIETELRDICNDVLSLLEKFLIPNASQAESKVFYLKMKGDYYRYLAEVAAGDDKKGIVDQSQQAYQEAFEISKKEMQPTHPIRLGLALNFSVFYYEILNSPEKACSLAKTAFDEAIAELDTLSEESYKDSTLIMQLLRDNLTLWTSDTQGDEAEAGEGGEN

In the case of `Cc1ccc(NC(=O)c2ccnc(C(F)(F)F)c2)cc1-c1ccc2c(c1)N1CCOC[C@H]1C[C@H]2O` (racemic) [Example 3, (rac)-(trans)-N-(3-(6-hydroxy-1,2,4,4a,5,6-hexahydro-[1,4]oxazino[4,3-a]quinolin-9-yl)-4-methylphenyl)-2-(trifluoromethyl)isonicotinamide], the IC50 – broadly, the concentration needed to halve the response being measured – was 0.031 nM.

Consider `Cc1ccc(NC(=O)c2ccnc(C(C)(F)F)c2)cc1-c1ccc2c(c1)N1CCOCC1CC2O` (racemic) [Example 6, (rac)-2-(1,1-difluoroethyl)-N-(3-(6-hydroxy-1,2,4,4a,5,6-hexahydro-[1,4]oxazino[4,3-a]quinolin-9-yl)-4-methylphenyl)isonicotinamide], for which half-maximal inhibition (IC50) was put at 0.076 nM.

For `Cc1ccc(NC(=O)c2ccnc(C(C)(C)F)c2)cc1-c1ccc2c(c1)N1CCOCC1CC2O` (racemic) [Example 7, (rac)-2-(2-fluoropropan-2-yl)-N-(3-(6-hydroxy-1,2,4,4a,5,6-hexahydro-[1,4]oxazino[4,3-a]quinolin-9-yl)-4-methylphenyl)isonicotinamide], the IC50 turned out to be 0.033 nM.

As for `Cc1ccc(NC(=O)c2ccnc(C(C)(C)C#N)c2)cc1-c1ccc2c(c1)N1CCOCC1CC2O` (racemic) [Example 8, (rac)-2-(2-cyanopropan-2-yl)-N-(3-(6-hydroxy-1,2,4,4a,5,6-hexahydro-[1,4]oxazino[4,3-a]quinolin-9-yl)-4-methylphenyl)isonicotinamide], half-maximal inhibition (IC50) required 0.19 nM.

As for `Cc1ncc(NC(=O)c2cccc(C(F)(F)F)c2)cc1-c1ccc2c(c1)N1CCOCC1CC2O` (racemic) [Example 9, (rac)-N-(5-(6-hydroxy-1,2,4,4a,5,6-hexahydro-[1,4]oxazino[4,3-a]quinolin-9-yl)-6-methylpyridin-3-yl)-3-(trifluoromethyl)benzamide], half-maximal inhibition (IC50) was put at 0.051 nM.

For `Cc1ccc(NC(=O)c2cnnc(C(F)(F)F)c2)cc1-c1ccc2c(c1)N1CCOCC1CC2O` (racemic) [Example 10, (rac)-N-(3-(6-hydroxy-1,2,4,4a,5,6-hexahydro-[1,4]oxazino[4,3-a]quinolin-9-yl)-4-methylphenyl)-6-(trifluoromethyl)pyridazine-4-carboxamide], the IC50 was 0.036 nM.

Regarding `Cc1ncc(NC(=O)c2ccnc(C(C)(F)F)c2)cc1-c1ccc2c(c1)N1CCOCC1CC2O` (racemic) [Example 11, (rac)-2-(1,1-difluoroethyl)-N-(5-(6-hydroxy-1,2,4,4a,5,6-hexahydro-[1,4]oxazino[4,3-a]quinolin-9-yl)-6-methylpyridin-3-yl)isonicotinamide], the IC50 was determined as 0.0098 nM.

The compound `Cc1ccc(NC(=O)c2ccnc(C(C)(F)F)c2)cc1-c1ccc2c(c1)N1CCOCC1CC2O` (racemic) [Example 16, (rac)-2-(1,1-difluoroethyl)-N-(3-(6-hydroxy-1,2,4,4a,5,6-hexahydro-[1,4]oxazino[4,3-a]quinolin-9-yl)-4-methylphenyl)isonicotinamide] came in with a 50% inhibitory concentration (IC50) of 0.055 nM.

`Cc1ccc(NC(=O)c2ccnc(C(C)(C)F)c2)cc1-c1ccc2c(c1)N1CCOCC1CC2O` (racemic) [Example 17, (rac)-2-(2-fluoropropan-2-yl)-N-(3-(6-hydroxy-1,2,4,4a,5,6-hexahydro-[1,4]oxazino[4,3-a]quinolin-9-yl)-4-methylphenyl)isonicotinamide] came in with an IC50 of 0.046 nM.

Compound `Cc1ccc(NC(=O)c2ccnc(C(F)(F)F)c2)cc1-c1ccc2c(c1)N1CCOCC1CC2` (racemic) [Example 21, (rac)-N-(3-(1,2,4,4a,5,6-hexahydro-[1,4]oxazino[4,3-a]quinolin-9-yl)-4-methylphenyl)-2-(trifluoromethyl)isonicotinamide] came in with an IC50 of 0.0012 nM.

Turning to `Cc1ccc(NC(=O)c2ccnc(C(F)(F)F)c2)cc1-c1ccc2c(c1)N1CCOCC1CC2(C)O` (racemic) [Example 22, (rac)-N-(3-(6-hydroxy-6-methyl-1,2,4,4a,5,6-hexahydro-[1,4]oxazino[4,3-a]quinolin-9-yl)-4-methylphenyl)-2-(trifluoromethyl)isonicotinamide], the midpoint of inhibition, the IC50, lay at 0.23 nM.

Consider `Cc1ccc(NC(=O)c2ccnc(C(C)(F)F)c2)cc1-c1ccc2c(c1)N1CCOCC1CC2(C)O` (racemic) [Example 23], for which the half-maximal inhibitory concentration (IC50) worked out at 0.046 nM.

The compound `Cc1ccc(NC(=O)c2ccnc(C(C)(F)F)c2)cc1-c1ccc2c(c1)N1CCOC[C@]1(C)C[C@H]2O` (racemic) [Example 27] displayed an IC50 of 0.017 nM.

With `Cc1ccc(NC(=O)c2ccnc(C(F)(F)F)c2)cc1-c1ccc2c(c1)N1CCOCC1CC2N` (racemic) [Example 28, (rac)-N-(3-(6-amino-1,2,4,4a,5,6-hexahydro-[1,4]oxazino[4,3-a]quinolin-9-yl)-4-methylphenyl)-2-(trifluoromethyl)isonicotinamide], the concentration for half-maximal inhibition (IC50) turned out to be 0.059 nM.

For the compound `CC(=O)NC1CC2COCCN2c2cc(-c3cc(NC(=O)c4ccnc(C(F)(F)F)c4)ccc3C)ccc21` (racemic) [Example 29, N-(3-(6-acetamido-1,2,4,4a,5,6-hexahydro-[1,4]oxazino[4,3-a]quinolin-9-yl)-4-methylphenyl)-2-(trifluoromethyl)isonicotinamide], the IC50 was found to be 0.17 nM.

`CO[C@@H]1C[C@@H]2COCCN2c2cc(-c3cc(NC(=O)c4ccnc(C(F)(F)F)c4)ccc3C)ccc21` (racemic) [Example 30, (rac)-(trans)-N-(3-(6-methoxy-1,2,4,4a,5,6-hexahydro-[1,4]oxazino[4,3-a]quinolin-9-yl)-4-methylphenyl)-2-(trifluoromethyl)isonicotinamide] yielded an IC50 of 0.18 nM.

The compound `CO[C@@H]1C[C@@H]2COCCN2c2cc(-c3cc(NC(=O)c4ccnc(C(C)(F)F)c4)cnc3C)ccc21` (racemic) [Example 31, (rac)-(trans)-2-(1,1-difluoroethyl)-N-(5-(6-methoxy-1,2,4,4a,5,6-hexahydro-[1,4]oxazino[4,3-a]quinolin-9-yl)-6-methylpyridin-3-yl)isonicotinamide] gave an IC50 of 0.033 nM.

The compound `CO[C@@H]1C[C@@H]2COCCN2c2cc(-c3cc(NC(=O)c4cccc(C(F)(F)F)c4)cnc3C)ccc21` (racemic) [Example 32, (rac)-(trans)-N-(5-(6-methoxy-1,2,4,4a,5,6-hexahydro-[1,4]oxazino[4,3-a]quinolin-9-yl)-6-methylpyridin-3-yl)-3-(trifluoromethyl)benzamide] came in with an IC50 of 0.023 nM.

For the compound `COC1CC2COCCN2c2cc(-c3cc(NC(=O)c4ccnc(C(F)(F)F)c4)ccc3C)cnc21` (racemic) [Example 34], the IC50 turned out to be 0.0087 nM.

The compound `Cc1ccc(NC(=O)c2ccnc(C(F)(F)F)c2)cc1-c1cnc2c(c1)N1CCOC[C@H]1C[C@@H]2O` (racemic) [Example 37, (rac)-(cis)-N-(3-(6-hydroxy-1,2,4,4a,5,6-hexahydro-[1,4]oxazino[4,3-a][1,5]naphthyridin-9-yl)-4-methylphenyl)-2-(trifluoromethyl)isonicotinamide] had an IC50 of 0.0081 nM.

On to `Cc1ncc(NC(=O)c2cccc(C(F)(F)F)c2)cc1-c1cnc2c(c1)N1CCOC[C@H]1C[C@@H]2O` (racemic) [Example 38, (rac)-(cis)-N-(5-(6-hydroxy-1,2,4,4a,5,6-hexahydro-[1,4]oxazino[4,3-a][1,5]naphthyridin-9-yl)-6-methylpyridin-3-yl)-3-(trifluoro-methyl)benzamide], for which the 50% inhibitory concentration (IC50) came to 0.03 nM.

The compound `Cc1ccc(NC(=O)c2ccnc(C(F)(F)F)c2)cc1-c1cnc2c(c1)N1CCOC[C@H]1C[C@@]2(C)O` (racemic) [Example 39, (rac)-(trans)-N-(3-(6-hydroxy-6-methyl-1,2,4,4a,5,6-hexahydro-[1,4]oxazino[4,3-a][1,5]naphthyridin-9-yl)-4-methylphenyl)-2-(trifluoromethyl)isonicotinamide] returned an IC50 of 0.0023 nM.

The compound `Cc1ccc(NC(=O)c2ccnc(C(F)(F)F)c2)cc1-c1cnc2c(c1)N1CCOC[C@H]1C[C@]2(C)O` (racemic) [Example 40, (rac)-(cis)-N-(3-(6-hydroxy-6-methyl-1,2,4,4a,5,6-hexahydro-[1,4]oxazino[4,3-a][1,5]naphthyridin-9-yl)-4-methylphenyl)-2-(trifluoromethyl)isonicotinamide] registered an IC50 of 0.066 nM.

The record behind these values is patent US10377770B2 (Novartis AG, priority 2015, dated 2019).
